Data taken from US20190328857A1, “CALR AND JAK2 VACCINE COMPOSITIONS” (IO Biotech ApS, priority 2016, published 2019).

Experiments:
Assay type in all cases: cell-based, human
UKE-1 and THP-1 cells = experiment: ELISPOT of JAK201-specific T cells stimulated with cancer cell lines; conditions: 100 U/ml IFN-γ 2 days before assaying
Excerpt: (§1) Next, we examined the capacity of JAK201-specific T cells to recognize and kill cancer cells harboring the JAK2V617F mutation. UKE-1, SET-2 and THP-1 are acute myeloid leukemia cancer cell lines that are HLA-A2-positive. THP-1 cells are JAK2 wt, whereas UKE-1 cells are homozygous and SET-2 are heterozygous for the JAK2V617F mutation. We first examined JAK201-specific T-cells reaction towards the UKE-1 cancer cell line. […] IFN-γ is known to induce the immunoproteasome and to upregulate HLA class I on the cell surface overall enhancing the antigen presentation by the target cell.
Finally to confirm the recognition of cells expressing the JAK2V617F mutation, we transfected JAK2 wt THP-1 cells with mRNA encoding the JAK2V617F mutation using neural growth factor receptor (NGFR) encoding mRNA as control and used these cells as target cells in cytokine release and Granzyme B assays. […] More than 50% of patients with Philadelphia chromosomenegative chronic MPN harbor the JAK2V617F mutation. This acquired somatic mutation is found exclusively in myeloid malignancies, rendering it a cancer-specific antigen. JAK2V617F is consequently an attractive target for cancer immune therapy.

[1] = test system: UKE-1, SET-2 and THP-1 cells; experiment: Standard Cr^51 cytotoxicity assay with JAK201-specific T cells and cancer cell lines
Excerpt: as §1
Then we examined the importance of the intracellular expression of the JAK2V617F mutation for the recognition of target cells by JAK201-specific T cells. Thus to silence the JAK2V617F mutation, we transfected UKE-1 cells with JAK2V617F siRNA and used the transfected cells as target cells, and compared the recognition with mock transfected UKE-1 cells as previously described. Silencer siRNA duplex for targeted silencing of JAK2V617F with 3′-end overhang dT bases in the antisense strand (sense sequence 5′-[…]-3′ (SEQ ID NO: 21), antisense sequence 5′-[…]-3′ (SEQ ID NO: 22) for duplex 1; and sense sequence 5′-[…]-3′ (SEQ ID NO: 23), antisense sequence 5′-[…]-3′ (SEQ ID NO: 24) for duplex 2) were obtained from Invitrogen (Invitrogen, Paisley, UK). […]

autologous CALRmut cells = experiment: Intracellular cytokine staining of CALRLong1-specific T cells stimulated with autologous target cells; conditions: IFN-γ 300 U/ml for 24 h
Description: As target cells, we used autologous CD14^+ monocytes and B-cells (BCL). As described above, CD14^+ monocytes were isolated using the MACS CD14 MicroBead kit. An autologous B-cell line was generated using EBV transfection of donor BCL at the Health Protection Agency Culture Collections, Salisbury, UK.
Frozen T-cells were thawed one day prior to assaying, and in experiments examining CD107a expression, a CD107a-PE antibody was added to cells directly after addition of peptide or target cells. After one hour of stimulation, protein-transport inhibitor Brefeldin A (BD Biosciences, San Jose, Calif., USA) was added to the cells which were then stimulated for four h. Cells were stained with CD3-APC-H7, CD4-FITC, CD8-PerCP, IFN-γ-APC, TNF-α-BV421 and Fixable Viability Stain 510 (BD Biosciences, San Jose, Calif., USA), permeabilized and washed with Permeabilization Reagent/Diluent and fixation-permeabilization buffer (AH Diagnostics, Aarhus, Denmark). Cells were acquired with a FACS Canto II (BD Biosciences) and analyzed using FACSDiva software. All effector cell stimulations were run in triplicate wells if not otherwise specified.
Autologous CD14^+ monocytes were cultured with CellGro, GM-CSF (1000 U/ml) and IL-4 (250 U/mL) and transfected with either CALR siRNA or negative-control siRNA (Invitrogen) the next day, using electroporation parameters as described previously (Met et al., 2011). In brief, monocytes were washed twice, suspended in Opti-MEM medium (Invitrogen) and adjusted to a final cell density of 10^7 cells/ml. The cell suspension (200 μl) was preincubated for 5 min on ice and subsequently, together with 5 μl of CALR siRNA or 10 μl of negative control siRNA transferred to a 2-mm gap electroporation and pulsed using a BTX 830 square-wave electroporator (Harvard Apparatus, Holliston Mass., USA). Electroporation settings were adjusted to a single pulse, 250 V, 2 ms. […]
As target cells, we used CD14^+ monocytes with CALRmut allelic burden of 71% and autologous EBV-transformed immortalized B-cells with a CALRmut allelic burden of 0% determined by PCR analysis. […]

IFN-γ: cytokine used to pretreat target cells to enhance antigen presentation
effect of pretreatment of UKE-1 cells on IFN-γ release from the T cells (UKE-1 and THP-1 cells): even greater release | lysis of SET-2 cells after stimulation ([1]; IFN-γ stimulation): likewise lysed | effect of treatment of UKE-1 cells on lysis ([1]; IFN-γ treatment): augmented | effect of target cell stimulation on T-cell activation, B-cells (autologous CALRmut cells): no change in activation | effect of target cell stimulation on T-cell activation, CALRmut monocytes (autologous CALRmut cells): significantly enhanced
